Assays:
[1] = system: tumor cells (in vitro); assay: Destruction of tumor cells in vitro by cefamandole alone; assay type: cell-based; conditions: cefamandole without nanoparticles
Description: Cefamandole (CAS No 30034-03-8) is used to combat bacterial infections. […] This substance's potential to combat cancer cells, however, is to be considered to be rather low. […] It is, however, possible to drastically increase the efficacy of cefamandole in the treatment of tumor cells by the simultaneous application of nanoparticles.

[2] = system: BT20 (breast carcinoma) cells; assay: Efficacy of cefamandole/nanoparticle mixture in vitro, BT20 (Example 2); assay type: cell-based, human; conditions: 72 hrs incubation, cefamandole 0.016 mg/ml in medium, 136 μl MFL AS M01
Protocol: (§1) The experiments in vitro were carried out with the cell lines BT20 (breast carcinoma) and WiDr (colon carcinoma). The tumor cells were taken from tumor tissue of a patient and cultivated as described in DE 199 12 798 C1. 2×10^6 cells, respectively, were prepared in a 75 cm^3 cell culture bottle with 25 ml of cell culture medium (RPMI+10% FBS+1.2 ml of pyruvate for WiDr cells, or respectively BME+10% FBS+pyruvate+5 ml of non-essential amino acids+5 ml glutamine for BT20 cells) for testing the efficacy of the cefamandole/nanoparticle mixture. 136 μl of magnetic fluid MFL AS M01 (iron oxide nanoparticle coated with polycondensed N-(2-aminoethyl)-3-(trimethoxysilyl)propylamine, manufacturer: MagForce Nanotechnologies GmbH, Berlin, Germany) (cFe=2 mol/l) and 390 μl of cefamandole solution (stock solution 1 mg/ml in 0.9% NaCl) were added to said cell suspension.
(§2) After 72 hrs, 30.5% of the BT20 cells and 24% of the WiDr cells had died. Neither cefamandole in the selected concentration, nor the nanoparticle alone, are capable of causing cell death (0% of dead cells). Only the combination of cefamandole and nanoparticles leads to said significant damage of the tumor cells which is due to the transfer of cefamandole into the cells.

[3] = system: WiDr (colon carcinoma) cells; assay: Efficacy of cefamandole/nanoparticle mixture in vitro, WiDr (Example 2); assay type: cell-based, human; conditions: 72 hrs incubation, cefamandole 0.016 mg/ml in medium, 136 μl MFL AS M01
Protocol: as §1, §2

[4] = system: bronchial carcinoma cells NSCLC; assay: Increase in the activity of cytostatics with nanoparticles (Table 1), NSCLC; assay type: cell-based; conditions: procedure of example 2
Protocol: as §1
(§3) Corresponding to the experiment procedure according to example 2, the following […] were tested in vitro with the active ingredients listed in table 1: a) glioblastoma human cell line RUSIRS 1; b) breast carcinoma cell lines BT20; c) colon carcinoma cell line WiDR; d) bronchial carcinoma cells NSCLC, e) rectal carcinoma cells and f) prostate carcinoma cell line DU 145.
(§4) In all cases, an increased activity of the cytostatic could be observed. The increase in activity is indicated in parentheses after the respective cytostatic, wherein (+) means an increase of about 5% to 80% and (++) means an increase of 80% to 500%.

[5] = system: neuroglioma cell line H4; assay: Increase in the activity of cytostatics with nanoparticles (Table 1), H4; assay type: cell-based; conditions: procedure of example 2
Protocol: as §1, §3, §4

[6] = system: breast carcinoma cell lines BT20; assay: Increase in the activity of cytostatics with nanoparticles (Table 1), BT20; assay type: cell-based, human; conditions: procedure of example 2
Protocol: as §1, §3, §4

[7] = system: colon carcinoma cell line WiDr; assay: Increase in the activity of cytostatics with nanoparticles (Table 1), WiDr; assay type: cell-based, human; conditions: procedure of example 2
Protocol: as §1, §3, §4

[8] = system: prostate carcinoma cell line DU 145; assay: Increase in the activity of cytostatics with nanoparticles (Table 1), DU 145; assay type: cell-based; conditions: procedure of example 2
Protocol: as §1, §3, §4

[9] = system: rectal carcinoma cells; assay: Increase in the activity of cytostatics with nanoparticles (Table 1), rectal carcinoma; assay type: cell-based; conditions: procedure of example 2
Protocol: as §1, §3, §4

[10] = system: glioblastoma human cell line RUSIRS1; assay: Increase in the activity of cytostatics with nanoparticles (Table 1), RUSIRS1; assay type: cell-based; conditions: procedure of example 2
Protocol: as §1, §3, §4

SMILES	concentration in the cell culture medium needed for destruction of tumor cells [1] [mg/mL]	dead cells [2] [%]	dead cells [3] [%]	increase in the activity of cytostatics [4]	increase in the activity of cytostatics [5]	increase in the activity of cytostatics [6]	increase in the activity of cytostatics [7]	increase in the activity of cytostatics [8]	increase in the activity of cytostatics [9]	increase in the activity of cytostatics [10]
Cn1nnnc1SCC1=C(C(=O)O)N2C(=O)[C@@H](NC(=O)[C@H](O)c3ccccc3)[C@H]2SC1 [cefamandole, Cefamandole]	≥ 0.5	0	0	–	–	–	–	–	–	–
CO[C@H]1C[C@@H]2CC[C@@H](C)[C@@](O)(O2)C(=O)C(=O)N2CCCC[C@H]2C(=O)O[C@H]([C@H](C)C[C@@H]2CC[C@@H](O)[C@H](OC)C2)CC(=O)[C@H](C)/C=C(\C)[C@@H](O)[C@@H](OC)C(=O)[C@H](C)C[C@H](C)/C=C/C=C/C=C/1C [rapamycin]	–	–	–	(+) ((+) means an increase of about 5% to 80%)	(+) ((+) means an increase of about 5% to 80%)	(++) ((++) means an increase of 80% to 500%)	(+) ((+) means an increase of about 5% to 80%)	(+) ((+) means an increase of about 5% to 80%)	(++) ((++) means an increase of 80% to 500%)	(+) ((+) means an increase of about 5% to 80%)
Cc1onc(-c2ccccc2)c1C(=O)N[C@@H]1C(=O)N2[C@@H]1SC(C)(C)[C@@H]2C(=O)O [oxacillin]	–	–	–	(+) ((+) means an increase of about 5% to 80%)	(+) ((+) means an increase of about 5% to 80%)	(+) ((+) means an increase of about 5% to 80%)	(++) ((++) means an increase of 80% to 500%)	(++) ((++) means an increase of 80% to 500%)	(+) ((+) means an increase of about 5% to 80%)	(+) ((+) means an increase of about 5% to 80%)
N.N.[Cl][Pt][Cl] [cisplatin]	–	–	–	(++) ((++) means an increase of 80% to 500%)	(++) ((++) means an increase of 80% to 500%)	(+) ((+) means an increase of about 5% to 80%)	(+) ((+) means an increase of about 5% to 80%)	(+) ((+) means an increase of about 5% to 80%)	(+) ((+) means an increase of about 5% to 80%)	(+) ((+) means an increase of about 5% to 80%)
Nc1ccn([C@@H]2O[C@H](CO)[C@@H](O)C2(F)F)c(=O)n1 [gemcitabine]	–	–	–	(++) ((++) means an increase of 80% to 500%)	(+) ((+) means an increase of about 5% to 80%)	(+) ((+) means an increase of about 5% to 80%)	(+) ((+) means an increase of about 5% to 80%)	(+) ((+) means an increase of about 5% to 80%)	(+) ((+) means an increase of about 5% to 80%)	(+) ((+) means an increase of about 5% to 80%)
NC[C@H]1O[C@H](O[C@H]2[C@H](O)[C@@H](O[C@H]3O[C@H](CO)[C@@H](O)[C@H](N)[C@H]3O)[C@H](N)C[C@@H]2N)[C@H](N)C[C@@H]1O [tobramycin]	–	–	–	(+) ((+) means an increase of about 5% to 80%)	(+) ((+) means an increase of about 5% to 80%)	(+) ((+) means an increase of about 5% to 80%)	(+) ((+) means an increase of about 5% to 80%)	(+) ((+) means an increase of about 5% to 80%)	(+) ((+) means an increase of about 5% to 80%)	(+) ((+) means an increase of about 5% to 80%)
O=NN(CCCl)C(=O)NCCCl [carmustine]	–	–	–	(++) ((++) means an increase of 80% to 500%)	(+) ((+) means an increase of about 5% to 80%)	(+) ((+) means an increase of about 5% to 80%)	(+) ((+) means an increase of about 5% to 80%)	(+) ((+) means an increase of about 5% to 80%)	(+) ((+) means an increase of about 5% to 80%)	(+) ((+) means an increase of about 5% to 80%)
Cc1oncc1C(=O)Nc1ccc(C(F)(F)F)cc1 [leflunomide]	–	–	–	(+) ((+) means an increase of about 5% to 80%)	(+) ((+) means an increase of about 5% to 80%)	(+) ((+) means an increase of about 5% to 80%)	(+) ((+) means an increase of about 5% to 80%)	(+) ((+) means an increase of about 5% to 80%)	(+) ((+) means an increase of about 5% to 80%)	(+) ((+) means an increase of about 5% to 80%)
CC(=O)[C@]1(O)Cc2c(O)c3c(c(O)c2[C@@H](O[C@H]2C[C@H](N)[C@H](O)[C@H](C)O2)C1)C(=O)c1ccccc1C3=O [idarubicin]	–	–	–	(++) ((++) means an increase of 80% to 500%)	(+) ((+) means an increase of about 5% to 80%)	(+) ((+) means an increase of about 5% to 80%)	(+) ((+) means an increase of about 5% to 80%)	(+) ((+) means an increase of about 5% to 80%)	(+) ((+) means an increase of about 5% to 80%)	(++) ((++) means an increase of 80% to 500%)
